The target of one assay is T1, TTK (Homo sapiens, UniProt P33981).
T1 sequence (P33981 1-857): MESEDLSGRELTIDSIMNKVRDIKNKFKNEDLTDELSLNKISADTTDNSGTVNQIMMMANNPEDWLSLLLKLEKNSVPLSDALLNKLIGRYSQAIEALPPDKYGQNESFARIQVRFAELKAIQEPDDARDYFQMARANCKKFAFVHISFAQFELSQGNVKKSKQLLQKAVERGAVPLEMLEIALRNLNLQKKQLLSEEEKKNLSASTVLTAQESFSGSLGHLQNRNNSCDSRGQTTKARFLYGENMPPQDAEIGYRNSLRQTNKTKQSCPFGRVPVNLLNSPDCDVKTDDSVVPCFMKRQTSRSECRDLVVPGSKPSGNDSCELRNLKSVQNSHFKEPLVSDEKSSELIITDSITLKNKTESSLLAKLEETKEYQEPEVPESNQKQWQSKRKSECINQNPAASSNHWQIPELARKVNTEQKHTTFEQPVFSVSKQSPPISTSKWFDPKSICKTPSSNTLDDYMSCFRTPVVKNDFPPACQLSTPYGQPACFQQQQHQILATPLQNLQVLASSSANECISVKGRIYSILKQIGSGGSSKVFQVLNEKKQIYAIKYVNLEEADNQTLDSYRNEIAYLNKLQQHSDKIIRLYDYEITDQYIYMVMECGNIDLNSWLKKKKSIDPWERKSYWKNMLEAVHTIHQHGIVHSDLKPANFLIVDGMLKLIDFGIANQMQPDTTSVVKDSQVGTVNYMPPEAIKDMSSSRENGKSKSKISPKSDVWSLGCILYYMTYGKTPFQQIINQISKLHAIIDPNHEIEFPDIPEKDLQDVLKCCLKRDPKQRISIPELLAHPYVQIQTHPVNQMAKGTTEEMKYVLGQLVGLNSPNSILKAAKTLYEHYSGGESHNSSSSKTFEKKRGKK
Put plainly: TTK enzyme inhibition, ADP-Glo kinase assay. The following applies: ATP 5 μM. It counts as biochemical. Details: purchased SignalChem T20-10G. The gist of the method: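 Purified human TTK (7.5 ng) was reacted with 5 μM ATP and 0.2 μg MBP substrate for 4 h at 25 °C in 40 mM Tris-HCl pH 7.4, 20 mM MgCl2, 0.1 mg/mL BSA, 50 μM DTT. ADP formation was read by ADP-Glo luminescence, and IC50 was taken relative to solvent control.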
For orientation: ADP-Glo turns the ADP formed in a reaction into a luminescent signal.

In the next assay the target is LRRK2 (Homo sapiens, UniProt Q5S007). Nature of the assay: LRRK2 enzyme inhibition, ADP-Glo kinase assay. It counts as biochemical. Details: purchased Invitrogen PR8604B. The conditions noted are these: ATP 10 μM. The gist of the method:
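Purified human LRRK2 (25 ng) with 10 μM ATP and 0.2 μg substrate in 40 mM Tris-HCl pH 7.4, 20 mM MgCl2, 0.5 mg/mL BSA, 50 μM DTT, 2 h at 25° C. ADP-Glo luminescence; 12-point compound series from 50 μM final; IC50 relative to solvent control.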

A further assay concerns human DYRK1A and tau. Put plainly: Inhibition of tau phosphorylation, ClariCELL Kinase Cell-Based Assay, HEK 293 cells expressing human DYRK1A and tau. The following applies: for inhibition at 1 µM: HEK293, read-out: % inhibition at 1 uM, tau phosphorylation, compound 1 uM; for inhibition at 0.25 µM / inhibition at 0.5 µM: HEK293, tau phosphorylation; for inhibition at 0.25 µM: compound 0.25 uM; for inhibition at 0.5 µM: compound 0.5 uM. The gist of the method: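 Cell-based service assay: HEK 293 cells transiently expressing human DYRK1A and tau were treated with compound and lysed. Released tau was plate-captured and its phosphorylation quantified by ELISA with a phospho-tau-specific antibody.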

Sequence of LRRK2 (Q5S007 970-2527 limits assumed): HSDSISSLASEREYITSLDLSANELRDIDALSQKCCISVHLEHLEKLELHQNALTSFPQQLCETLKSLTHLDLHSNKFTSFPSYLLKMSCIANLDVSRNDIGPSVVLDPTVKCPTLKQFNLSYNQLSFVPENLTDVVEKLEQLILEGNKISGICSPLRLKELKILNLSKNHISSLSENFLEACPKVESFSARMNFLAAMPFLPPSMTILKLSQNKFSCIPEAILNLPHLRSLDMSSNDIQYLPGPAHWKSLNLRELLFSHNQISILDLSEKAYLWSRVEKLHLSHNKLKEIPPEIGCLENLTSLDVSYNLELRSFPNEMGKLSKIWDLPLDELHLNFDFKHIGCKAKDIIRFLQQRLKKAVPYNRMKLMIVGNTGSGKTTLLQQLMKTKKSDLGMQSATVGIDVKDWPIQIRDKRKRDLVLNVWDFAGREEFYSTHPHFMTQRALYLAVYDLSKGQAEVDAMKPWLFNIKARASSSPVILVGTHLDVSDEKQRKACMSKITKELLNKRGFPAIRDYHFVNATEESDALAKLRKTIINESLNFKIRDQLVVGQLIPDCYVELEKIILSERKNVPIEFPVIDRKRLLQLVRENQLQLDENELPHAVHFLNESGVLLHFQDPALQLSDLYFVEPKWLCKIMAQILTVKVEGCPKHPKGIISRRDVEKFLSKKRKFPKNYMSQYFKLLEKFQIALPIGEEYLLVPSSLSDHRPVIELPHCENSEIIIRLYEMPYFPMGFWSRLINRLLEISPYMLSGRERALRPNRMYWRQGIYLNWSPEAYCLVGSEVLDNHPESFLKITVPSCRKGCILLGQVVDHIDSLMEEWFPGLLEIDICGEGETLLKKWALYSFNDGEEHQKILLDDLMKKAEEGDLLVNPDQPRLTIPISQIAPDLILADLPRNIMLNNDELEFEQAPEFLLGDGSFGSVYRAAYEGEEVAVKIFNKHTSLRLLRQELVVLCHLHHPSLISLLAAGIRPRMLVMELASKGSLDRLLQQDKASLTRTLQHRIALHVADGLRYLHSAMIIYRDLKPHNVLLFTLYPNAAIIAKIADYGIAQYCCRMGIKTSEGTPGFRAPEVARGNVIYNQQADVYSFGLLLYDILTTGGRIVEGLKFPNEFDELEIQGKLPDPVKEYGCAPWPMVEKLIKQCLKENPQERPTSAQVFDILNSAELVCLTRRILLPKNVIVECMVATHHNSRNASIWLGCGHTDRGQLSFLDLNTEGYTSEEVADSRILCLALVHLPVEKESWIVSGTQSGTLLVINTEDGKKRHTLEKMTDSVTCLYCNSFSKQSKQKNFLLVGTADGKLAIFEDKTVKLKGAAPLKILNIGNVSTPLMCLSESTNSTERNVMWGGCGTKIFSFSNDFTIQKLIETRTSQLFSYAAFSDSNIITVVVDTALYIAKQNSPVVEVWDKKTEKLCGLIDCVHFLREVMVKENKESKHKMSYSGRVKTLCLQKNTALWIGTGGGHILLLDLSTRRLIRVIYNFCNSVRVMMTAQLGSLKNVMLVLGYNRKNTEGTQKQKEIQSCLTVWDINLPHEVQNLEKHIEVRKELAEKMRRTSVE

What is called IC50 is the concentration at which inhibition is half-maximal. A higher IC50 goes with lower potency. For orientation: inhibition means the change of the read-out against control, counted positive when it falls. In turn, `CCCNc1nc(Nc2ccc(S(=O)(=O)N3CCC(N4CCOCC4)CC3)cc2OC)nc2[nH]cc(C(F)(F)F)c12` [Example 161, N^2-(2-methoxy-4-((4-morpholinopiperidin-1-yl)sulfonyl)phenyl)-N^4-propyl-5-(trifluoromethyl)-7H-pyrrolo[2,3-d]pyrimidine-2,4-diamine] gave an IC50 at TTK of 101 to 300 nM. The molecule also registered a concentration for half-maximal inhibition (IC50) on LRRK2 of less than 100 nM. In the assay with human DYRK1A and tau, the inhibition at 1 µM amounted to 50%, the inhibition at 0.25 µM stood at 0% and the inhibition at 0.5 µM turned out to be 27.9%.

In turn, `CCNc1nc(Nc2ccc(S(=O)(=O)N3CCC(N4CCOCC4)CC3)cc2OC)nc2[nH]cc(C(F)(F)F)c12` [Example 158, N^4-ethyl-N^2-(2-methoxy-4-((4-morpholinopiperidin-1-yl)sulfonyl)phenyl)-5-(trifluoromethyl)-7H-pyrrolo[2,3-d]pyrimidine-2,4-diamine 2,2,2-trifluoroacetate] had a 50% inhibitory concentration (IC50) at TTK of less than 100 nM. The same molecule displayed a 50% inhibitory concentration (IC50) on LRRK2 of less than 100 nM. Besides, in the assay with human DYRK1A and tau, the inhibition at 1 µM turned out to be 66.8%, testing at 0.25 µM gave an inhibition of 25.4% and the inhibition at 0.5 µM amounted to 59.7%.

Molecule `CCNc1nc(Nc2ccc(S(=O)(=O)N3CCC(N4CCOCC4)CC3)c3c2OCCO3)nc2[nH]cc(C(F)(F)F)c12` [Example 430, N^4-ethyl-N^2-(8-((4-morpholino-piperidin-1-yl)sulfonyl)-2,3-dihydro-benzo[b][1,4]dioxin-5-yl)-5-(trifluoromethyl)-7H-pyrrolo[2,3-d]pyrimidine-2,4-diamine] had an IC50 at TTK of less than 100 nM. This molecule also yielded an IC50 against LRRK2 of less than 100 nM. Moreover, in the assay with human DYRK1A and tau, the inhibition at 1 µM was determined as 65.3%, testing at 0.25 µM gave an inhibition of 10.8% and the inhibition at 0.5 µM is 41.6%.

In turn, `COc1cc(S(=O)(=O)N2CCC(N3CCOCC3)CC2)ccc1Nc1nc(C2CC2)c2c(C#N)c[nH]c2n1` [Example 224, 4-cyclopropyl-2-((2-methoxy-4-((4-morpholinopiperidin-1-yl)sulfonyl)phenyl)amino)-7H-pyrrolo[2,3-d]pyrimidine-5-carbonitrile] came in with a half-inhibitory concentration (IC50) on TTK of less than 100 nM. The molecule also gave a half-inhibitory concentration (IC50) against LRRK2 of less than 100 nM. Moreover, in the assay with human DYRK1A and tau, the inhibition at 1 µM was determined as 39.9%, the inhibition at 0.25 µM is 3.6% and at 0.5 µM the inhibition was 15.6%.

With `CNc1nc(Nc2ccc(S(=O)(=O)N3CCC(N4CCOCC4)CC3)c3c2OCCO3)nc2[nH]cc(C(F)(F)F)c12` [Example 219, N^4-methyl-N^2-(8-((4-morpholinopiperidin-1-yl)sulfonyl)-2,3-dihydrobenzo[b][1,4]dioxin-5-yl)-5-(trifluoromethyl)-7H-pyrrolo[2,3-d]pyrimidine-2,4-diamine], the half-inhibitory concentration (IC50) on TTK is less than 100 nM. Besides, the 50% inhibitory concentration (IC50) on LRRK2 is less than 100 nM. Moreover, in the assay on human DYRK1A and tau, the inhibition at 1 µM stood at 84.2%, the inhibition at 0.25 µM is 42.1% and the inhibition at 0.5 µM is 58.8%.

On TTK, `COc1cc(P2(=O)CCN(C3CCOCC3)CC2)ccc1Nc1nc(NC2CC2)c2c(C(F)(F)F)c[nH]c2n1` [Example 435, 4-(4-((4-(cyclo-propylamino)-5-(trifluoromethyl)-7H-pyrrolo[2,3-d]pyrimidin-2-yl)amino)-3-methoxyphenyl)-1-(tetrahydro-2H-pyran-4-yl)-1,4-azaphosphinane 4-oxide] registered a half-maximal inhibitory concentration (IC50) of less than 100 nM. On LRRK2, the IC50 was less than 100 nM. Besides, in the assay on human DYRK1A and tau, the inhibition at 1 µM amounted to 73.4%, testing at 0.25 µM gave an inhibition of 22.7% and the inhibition at 0.5 µM was determined as 55.5%.
